The text below walks through data of PubChem BioAssay (NCI).

Each structure is given as a SMILES string.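 Following 48 hours of exposure in 96-well plates, responses at five concentrations were used to interpolate endpoints linearly. Abbreviation: GI50, concentration required for 50% inhibition of growth. The concentration for full growth arrest is given as TGI.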

Among the test systems are K-562 leukemia; NCI-H522 lung; DLD-1 colon; IGROV1 ovarian; A549 NSCLC; DMS 114 small cell lung; OVCAR-4 ovarian; HCT-116 colon; CAKI-1 renal.
Assay in all cases: inhibition of tumour cell growth, NCI panel, 48 h

For the molecule `COC(=O)C1=CC(=O)C(C(=O)Nc2ccc(OC)cc2)C(c2ccccc2)O1` (stereo not drawn), the TGI in the assay on K-562 leukemia was above 100 µM; with NCI-H522 lung, 90.1 µM; with DLD-1 colon, above 100 µM; in the assay on IGROV1 ovarian, 51 µM; in the assay with A549 NSCLC, above 72.9 µM; with DMS 114 small cell lung, above 67.5 µM. Also, the TGI with OVCAR-4 ovarian was above 77.9 µM; in the assay on HCT-116 colon, above 75.9 µM; in the assay with CAKI-1 renal, above 60 µM.

With `O=c1[nH]nc(-c2ccccc2)c(-c2ccccc2)c1-n1nc(-c2ccccc2)c2ccccc2c1=O`, the TGI with K-562 leukemia, in the assay on NCI-H522 lung, in the assay with DLD-1 colon, in the assay with IGROV1 ovarian, with A549 NSCLC and in the assay on OVCAR-4 ovarian was above 100 µM each time. Further, the TGI in the assay on HCT-116 colon and in the assay with CAKI-1 renal was above 100 µM throughout.

On to `[N-]=[N+]=Nc1ccc(S(=O)(=O)Oc2cc(OS(=O)(=O)c3ccc(N=[N+]=[N-])cc3)cc(OS(=O)(=O)c3ccc(N=[N+]=[N-])cc3)c2)cc1`, for which the TGI with K-562 leukemia, in the assay with NCI-H522 lung, in the assay on DLD-1 colon, with IGROV1 ovarian, in the assay with A549 NSCLC and in the assay on DMS 114 small cell lung was above 100 µM each time. Besides, the results for the TGI with OVCAR-4 ovarian, with HCT-116 colon and with CAKI-1 renal were above 10 µM, above 100 µM and above 10 µM, respectively.

With `COC(=O)C1Cc2c([nH]c3ccccc23)[C@H](CC(C)C)N1` (stereo partly drawn), the TGI with K-562 leukemia, in the assay on NCI-H522 lung, in the assay with DLD-1 colon, with IGROV1 ovarian, in the assay with A549 NSCLC and in the assay on DMS 114 small cell lung was above 100 µM throughout. This molecule returned a TGI in the assay on HCT-116 colon above 100 µM.

On to `CC(=O)OC1COC(N2C(=O)C(=O)c3c(C)cc(Cl)nc32)C(OC(C)=O)C1OC(C)=O` (stereo not drawn), for which the TGI in the assay with K-562 leukemia, in the assay with DLD-1 colon, with IGROV1 ovarian, in the assay with A549 NSCLC, in the assay on DMS 114 small cell lung and in the assay on OVCAR-4 ovarian was above 100 µM throughout. In addition, the TGI with HCT-116 colon and in the assay with CAKI-1 renal was above 100 µM throughout.

On to `CC(=O)NNc1nc(C)c(C(/C=C/c2ccc(/C=C/C(=N\NC(=O)c3ccncc3)c3sc(NNC(C)=O)nc3C)cc2)=N/NC(=O)c2ccncc2)s1`, for which the TGI in the assay on K-562 leukemia, in the assay on DLD-1 colon, with IGROV1 ovarian, in the assay on A549 NSCLC, in the assay on DMS 114 small cell lung and with HCT-116 colon was above 100 µM each time. The same molecule returned a TGI in the assay on CAKI-1 renal above 100 µM.

With `COc1ccc(NC(=O)CC/C(CC(=O)c2ccco2)=N/Nc2ccc([N+](=O)[O-])cc2[N+](=O)[O-])cc1`, the TGI in the assay with K-562 leukemia is above 100 µM; with NCI-H522 lung, above 100 µM; in the assay with IGROV1 ovarian it was above 100 µM; in the assay on A549 NSCLC, above 100 µM; with DMS 114 small cell lung, 69.6 µM; with OVCAR-4 ovarian it was above 100 µM. In addition, the TGI in the assay with HCT-116 colon and in the assay on CAKI-1 renal was above 100 µM in each case.

`Cc1ccc(S(=O)(=O)NCCCN(CCCNS(=O)(=O)c2ccc(C)cc2)S(=O)(=O)c2ccc(C)cc2)cc1`: the TGI in the assay with K-562 leukemia, with NCI-H522 lung, in the assay on DLD-1 colon, in the assay on IGROV1 ovarian, in the assay with A549 NSCLC and with DMS 114 small cell lung was above 100 µM in each case. In addition, in the assay with HCT-116 colon, the TGI was above 100 µM.

With `C=CCCc1cc(OC)ccc1CN(C)C(C)(C)CO`, the TGI with K-562 leukemia, in the assay on DLD-1 colon, in the assay on IGROV1 ovarian, with A549 NSCLC, in the assay on DMS 114 small cell lung and in the assay with OVCAR-4 ovarian was above 100 µM throughout. Further, the TGI in the assay with HCT-116 colon and in the assay with CAKI-1 renal was above 100 µM each time.

Take `COCCNC(=O)C1C(=O)N(CCOC)C(=O)/C1=N/N` (stereo not drawn): the TGI with K-562 leukemia, with NCI-H522 lung, with DLD-1 colon, with IGROV1 ovarian, with A549 NSCLC and in the assay on HCT-116 colon was above 100 µM throughout. Also, the TGI with CAKI-1 renal is above 100 µM.

Take `COC1OC(OC)C2C(c3c(C)cc(C)cc3C)=NOC12` (stereo not drawn): the TGI in the assay on K-562 leukemia, in the assay on NCI-H522 lung, in the assay on DLD-1 colon, in the assay with IGROV1 ovarian, in the assay on A549 NSCLC and in the assay with OVCAR-4 ovarian was above 100 µM each time. The TGI in the assay on HCT-116 colon and with CAKI-1 renal was above 100 µM throughout.

For `COc1ccc(C(=O)O/N=C2\CCCC\C2=C/c2ccccc2)cc1`, the TGI in the assay with DLD-1 colon was above 100 µM; in the assay on IGROV1 ovarian, above 100 µM; in the assay with A549 NSCLC, above 100 µM; with DMS 114 small cell lung, above 100 µM; with OVCAR-4 ovarian it was 95.8 µM; with HCT-116 colon, above 100 µM. In the assay on CAKI-1 renal, this molecule came in with a TGI above 100 µM.

Consider `CCCCN(CCCC)C(=Nc1ccccc1)N(CCCC)CCCC`, for which the TGI was 10.4 µM with K-562 leukemia; 7.41 µM with NCI-H522 lung; 43.6 µM in the assay on DLD-1 colon; 23.1 µM in the assay with IGROV1 ovarian; 27.9 µM with A549 NSCLC; 4.99 µM in the assay on DMS 114 small cell lung. This molecule also had a TGI with HCT-116 colon of 13.8 µM.

Consider `c1ccc([CH2][Sn]([CH2]c2ccccc2)([S]c2cccc3cccnc23)[S]c2cccc3cccnc23)cc1`, for which the GI50 in the assay with DLD-1 colon was 0.282 µM; with IGROV1 ovarian it was 0.289 µM; in the assay with DMS 114 small cell lung, 0.175 µM; with OVCAR-4 ovarian, 0.172 µM; with HCT-116 colon, 0.165 µM; in the assay with CAKI-1 renal it was 0.42 µM. Further, the TGI in the assay with DLD-1 colon amounted to 0.886 µM; in the assay with IGROV1 ovarian, 0.849 µM; in the assay with DMS 114 small cell lung, 0.378 µM; in the assay on OVCAR-4 ovarian it was 0.422 µM; with HCT-116 colon, 0.351 µM; in the assay on CAKI-1 renal, 1.02 µM.

For `C=C1C(=O)OC2C1C(OC(=O)/C(=C/C)COC(C)=O)CC1(CO1)C1C(OC(=O)/C(=C/C)CO)C=C(C)C21` (stereo not drawn), the TGI in the assay on K-562 leukemia amounted to 10 µM; in the assay on DLD-1 colon it was 4.14 µM; in the assay on IGROV1 ovarian, 3.82 µM; in the assay with A549 NSCLC, 24.8 µM; with DMS 114 small cell lung, 4.46 µM; in the assay on OVCAR-4 ovarian, 7.53 µM. The TGI in the assay on HCT-116 colon amounted to 2.98 µM; in the assay with CAKI-1 renal, 2.13 µM.

In the case of `Cc1c(C(=O)/C=C/c2ccco2)[n+](=O)c2ccccc2n1[O-]`, the TGI with K-562 leukemia, with NCI-H522 lung, in the assay on DLD-1 colon, in the assay on IGROV1 ovarian, in the assay with A549 NSCLC and in the assay with DMS 114 small cell lung was above 100 µM throughout. Besides, the TGI in the assay on HCT-116 colon and with CAKI-1 renal was above 100 µM in each case.
